# Key:
# TRPV3 [1] = molecular target: T1, TRPV3 (Homo sapiens, UniProt Q8NET8); test: Whole-cell patch-clamp, carvacrol-evoked TRPV3 current in TRPV3-overexpressing HEK 293T cells; assay type: cell-based; set-up: host or cells: NHEK; details: 1000 µM carvacrol, −100 mV, at higher concentrations
# T1 sequence (Q8NET8 1-790): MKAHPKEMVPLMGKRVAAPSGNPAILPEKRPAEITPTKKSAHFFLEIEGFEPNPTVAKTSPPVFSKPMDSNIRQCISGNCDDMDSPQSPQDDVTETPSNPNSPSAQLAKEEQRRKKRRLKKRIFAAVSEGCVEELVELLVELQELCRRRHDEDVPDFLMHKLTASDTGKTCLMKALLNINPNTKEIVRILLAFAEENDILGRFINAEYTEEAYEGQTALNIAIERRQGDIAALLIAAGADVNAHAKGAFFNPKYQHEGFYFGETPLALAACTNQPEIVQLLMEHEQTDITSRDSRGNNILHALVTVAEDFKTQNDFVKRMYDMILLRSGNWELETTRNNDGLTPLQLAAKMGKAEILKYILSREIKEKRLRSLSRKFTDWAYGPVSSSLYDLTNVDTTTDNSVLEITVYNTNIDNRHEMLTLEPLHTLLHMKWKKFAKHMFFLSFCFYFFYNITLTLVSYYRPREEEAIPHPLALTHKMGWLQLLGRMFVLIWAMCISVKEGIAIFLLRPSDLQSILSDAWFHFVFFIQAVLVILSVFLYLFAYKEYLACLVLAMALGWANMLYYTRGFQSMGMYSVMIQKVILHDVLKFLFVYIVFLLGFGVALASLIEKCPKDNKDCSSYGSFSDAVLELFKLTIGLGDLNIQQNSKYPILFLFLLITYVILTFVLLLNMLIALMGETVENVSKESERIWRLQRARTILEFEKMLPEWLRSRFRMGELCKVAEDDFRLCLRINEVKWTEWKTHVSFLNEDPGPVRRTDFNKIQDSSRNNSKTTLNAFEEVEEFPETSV
# TRPV3 [2] = molecular target: T1, TRPV3; test: Fura-2 calcium imaging, carvacrol-induced Ca2+ increase in NHEK; assay type: cell-based; set-up: host or cells: NHEK; details: 300 µM carvacrol, keratinocytes (NHEK), control 0.029 ± 0.003
# Protocol: Since the TRPV3-mediated calcium influx is reported to contribute to proper skin function, we investigated whether alpha-mangostin inhibits the intracellular calcium increase induced by carvacrol in hTRPV3-overexpressing HEK 293T cells and keratinocytes. […] In hTRPV3-overexpressing HEK 293T cells, ∆(F340/F380) decreased by approximately 25% and 70% upon exposure to 0.3 µM and 3 µM alpha-mangostin, respectively (Figure 3A, 0.424 ± 0.032 vs. 0.316 ± 0.030 and 0.144 ± 0.006, respectively).
# Figure 3 Alpha-mangostin (α-MG) inhibited TRPV3-mediated intracellular calcium increase. Cells were perfused with solutions containing 0.3 µM, 3 µM alpha-mangostin or 10 µM 74a before the addition of 300 µM carvacrol (red, green, and blue lines, respectively). […]
# Fura-2 AM (Thermo Fisher Scientific) was utilized as a fluorescent indicator to measure calcium signal, as described previously. […] To measure the cytosolic Ca^2+ level, a sequential excitation of Fura-2 is performed at 340 nm and 380 nm; then, the emission signals resulting from each excitation wavelength are measured and the ratio of these signals is calculated. […] Samples were excited using a wavelength of 380 nm for 20 ms, followed by 340 nm for 100 ms, and fluorescence at 510 nm was recorded. Recorded data were then analyzed using NIS-Element AR Version 5.00.00 (Nikon Instruments, Melville, NY, USA). […]
structure (smiles),measurement,setting,value
COc1c(O)cc2oc3cc(O)c(CC=C(C)C)c(O)c3c(=O)c2c1CC=C(C)C [Alpha-mangostin],Effect on TRPV3 current induced by carvacrol,TRPV3 [1],suppressed
same,Change in F340/F380,TRPV3 [2]; 0.3 µM,0.019 ± 0.002
same,Change in F340/F380,TRPV3 [2]; 3 µM,0.010 ± 0.002
